Results: patent US20220372013A2, “PIPERIDINE-2,6-DIONE DERIVATIVES AND CROHN'S DISEASE TREATING” (Tianjin Hemay Pharmaceutical Sci-Tech Co., Ltd, priority 2016, published 2022)
Marks after values point to notes of the source that are not given here.

What was measured:
[1] = tested on: DNBS-Induced Inflammatory Bowel Disease Models in Rats; assay: Biological Example 3: DNBS-induced inflammatory bowel disease models in rats; format: in vivo, Wistar rats; conditions: 30 mg/Kg i.g. qd × 7; for Adhesion Degree of Colon / Colon weight to length ratio / Inhibitory rate of colon adhesion / Inhibitory rate of ulcer area of colon / Inhibitory rate of weight increase per length / Ulcer area of colon: day 7; for Body weight: Mean ± SD
Description: 102 male Wistar rats were fasted for 40 hours. A 5% glucose injection (10 mL/Kg) was administered subcutaneously during fasting. 72 rats with normal conditions and moderate body weight were selected from the fasting rats. The animals were randomly divided into 9 groups according to the body weight (see Table 9. Grouped Table).
The animals were anesthetized with ether after 40 hours fasting. A specially made gavage device was slowly inserted into the enteric cavity at 8 cm from the anus. The model control group and each test group were administered with 0.5 mL of 50 mg/mL DNBS in 30% ethanol solution. The normal control group was administered with 0.5 mL of 30% ethanol solution. The animals were inverted in anesthesia for 15 minutes. The day when the model was prepared was day 0 of the experiment. After 4 hours of DNBS induction, the corresponding drug or the corresponding volume of 1% CMC-Na was administered once per day. On day 7 of the experiment, the animals were euthanized to score the colon adhesion degree, measure the length of colon and ulcer area, weigh colon and calculate the colon weight to length ratio.
One-way ANOVA analysis of the length of colon and colon weight per length of rats was performed by SPSS22. Statistical analyses between groups were performed. The adhesion degree was scored. Mann-Whitney U non-parametric test was performed on ulcer area. Statistical analyses between groups were performed.
Calculation Formula of Inhibitory rate of weight increase per length: (Colon weight to length ratio in model group−Colon weight to length ratio in administration group)/(Colon weight to length ratio in model group−Colon weight to length ratio in blank group)

mice = assay: Biological Example 5: acute toxicity experiment of single oral administration in mice; format: in vivo; conditions: single oral 1000 mg/Kg, Mean ± SD
Method in brief: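 Fasted ICR mice (19-21 g, three females and three males per group) received a single oral dose of 1000 mg/Kg, given first to one mouse of each sex and then to the remaining four. Behaviour, nervous and autonomic signs, and deaths were recorded over 0-15 min. Animals were then observed for 7 days with daily body weight.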

SMILES | Adhesion Degree of Colon [1] | Colon weight to length ratio [1] | Inhibitory rate of colon adhesion [1] | Inhibitory rate of ulcer area of colon [1] | Inhibitory rate of weight increase per length [1] | Ulcer area of colon [1] | Body weight ([1]; Day 0) | Body weight ([1]; Day 1) | Body weight ([1]; Day 2) | Body weight ([1]; Day 3) | Body weight ([1]; Day 4) | Body weight ([1]; Day 5) | Body weight ([1]; Day 6) | Body weight ([1]; Day 7) | also measured
COCCN1C(=O)CCC(N2C(=O)c3ccc(N)cc3C2=O)C1=O (centres unmarked) [Example 7, 5-amino-2-(1-(2-methoxyethyl)-2,6-dioxopiperidin-3-yl)isoindolin-1,3-dione] | 0.9 ± 0.8 point | 127 ± 52 mg/cm | 47.1# % | 75.1% | 35.4% | 0.77 ± 1.05 cm^2 | 136.1 ± 2.5 g | 136.7 ± 3.7 g | 137.0 ± 8.7 g | 141.6 ± 11.9 g | 148.2 ± 12.7 g | 159.2 ± 13.2 g | 168.0 ± 15.7 g | 173.5 ± 18.5 g | –
COCCCN1C(=O)CCC(N2C(=O)c3cccc(NC(C)=O)c3C2=O)C1=O (centres unmarked) [Example 16, 4-acetylamino-2-(1-(3-methoxypropyl)-2,6-dioxopiperidin-3-yl)isoindolin-1,3-dione] | 1.1 ± 0.8 point | 114 ± 23 mg/cm | 35.3% | 72.8# % | 51.9# % | 0.84 ± 1.25# cm^2 | 137.3 ± 1.7 g | 135.9 ± 3.7 g | 137.6 ± 7.0 g | 145.0 ± 9.2 g | 155.2 ± 10.9 g | 166.8 ± 10.2 g | 171.5 ± 15.1 g | 184.3 ± 13.8 g | –
COCCCCN1C(=O)CCC(N2C(=O)c3cccc(N)c3C2=O)C1=O (centres unmarked) [Example 22, 4-amino-2-(1-(4-methoxybutyl)-2,6-dioxopiperidin-3-yl)isoindolin-1,3-dione] | 0.8 ± 0.9 point | 112 ± 40 mg/cm | 52.9# % | 40.5% | 54.4# % | 1.84 ± 2.59 cm^2 | 137.5 ± 7.2 g | 137.0 ± 9.0 g | 139.7 ± 11.2 g | 144.1 ± 12.7 g | 152.6 ± 20.0 g | 162.7 ± 19.0 g | 170.5 ± 17.7 g | 178.3 ± 20.7 g | Daily Body Weight (mice; Female mice, Day 1): 18.5 ± 0.6 g; Daily Body Weight (mice; Female mice, Day 2): 21.8 ± 0.3 g; Daily Body Weight (mice; Female mice, Day 3): 22.9 ± 0.4 g; Daily Body Weight (mice; Female mice, Day 4): 24.0 ± 1.0 g; Daily Body Weight (mice; Female mice, Day 5): 25.0 ± 0.4 g; Daily Body Weight (mice; Female mice, Day 6): 25.3 ± 0.6 g; Daily Body Weight (mice; Female mice, Day 7): 25.6 ± 0.2 g; Daily Body Weight (mice; Male mice, Day 1): 17.1 ± 0.3 g; Daily Body Weight (mice; Male mice, Day 2): 22.9 ± 0.8 g; Daily Body Weight (mice; Male mice, Day 3): 23.5 ± 0.9 g; Daily Body Weight (mice; Male mice, Day 4): 25.2 ± 0.5 g; Daily Body Weight (mice; Male mice, Day 5): 27.2 ± 1.9 g; Daily Body Weight (mice; Male mice, Day 6): 27.1 ± 1.8 g; Daily Body Weight (mice; Male mice, Day 7): 27.4 ± 1.9 g
